Like-named read-outs stand apart in the source and are kept apart here.
What was measured:
Type in all cases: cell-based
[1] = test system: human erythroid progenitor cells; assay: Cell proliferation (alamar Blue) of differentiated primary human erythroid cells; conditions: for IC50: Erythroid progenitor cell, 72 h, read-out: IC50 (concentration at which the cell proliferation rate is reduced by 50%)
Description: FIG. 3 illustrates induction of the endogenous globin genes in the primary culture of human erythroid progenitor cells by compound A. (A) Dosage effect of compound A in the differentiated human erythroid progenitor cells. The differentiated primary cultured cells were treated with different concentrations of compound A for 3 days. Total mRNA was extracted, and relative induction of the β and γ globin mRNAs was determined by real time RT-PCR analysis. The cell proliferation abilities were determined with use of alamar Blue reagent (mock control as 100%). The white bars indicated the relative expression levels of β-globin. The gray bars represent the relative levels of γ-globin mRNA. (B) Comparison of γ and β globin gene expression patterns in primary erythroid cultured cells treated with different fetal globin inducing agents. […] The total RNAs were then isolated for real time RT-PCR analysis. Relative induction of the β globin gene (white bars) and the γ globin gene (grey bars) was then determined.
IC50 values are the concentrations of the individual compounds at which the cell proliferation rates are reduced by 50%.
(§1) Mouse erythroleukemic (MEL) cells, an adult erythroid cell line (Friend, et al. (1971) Proc Natl Acad Sci USA 68:378-82), were maintained in DMEM medium (Gibco) supplemented with 10% FBS and 1% penicillin-streptomycin, in 37° C. chamber under a 5% CO2 humidified atmosphere. For establishing stable cell lines, transfection of the reporter pmLAR-Gp-DsRed-Bp-d2EGFP into MEL cells was carried out using the Neon™ transfection system (Invitrogen). 2×10^6 MEL cells were transfected with 5 μg of the plasmid. Following microporation, the MEL cells were seeded in 10 ml antibiotics-free DMEM for 24 hrs and selected with […] of neomycin for one month. The primary human erythroid culture was initiated by maintaining the purified mononuclear cells in SFEM medium with 1× cc100 cytokine mix (StemSpan) for 7 days. The cells were then kept in the differentiation medium (SFEM with 20 ng/ml SCF, 1 U/ml EPO, 5 ng/ml IL-3, 2 micromolar dexamethasone) for another 7 days at a density of 0.1−1×10^6 cells/ml. The cells were treated with chemical compound at day 7 post-differentiation and then harvested for further analysis after 3 days of compound treatment.

[2] = test system: γ globin mRNA; assay: Real time RT-PCR of γ globin mRNA in primary human erythroid cultures; set-up: expression level of the fetal γ globin gene: dose or concentration left out as unconfirmed
Description: as §1
(§2) Total RNAs were isolated with use of the RNAspin Mini kit (GE Healthcare). cDNA synthesis was carried out using SuperScript II reverse transcriptase (Invitrogen). Quantitative RT-PCR was performed using the SYBR Green PCR Master Mix (Applied Biosystems) and ABI 7500 real-time System. All data were analyzed after normalization to the expression level of the mouse or human […] gene.

[3] = test system: mouse embryonic εy globin mRNA; assay: Real-time RT-PCR of endogenous embryonic globin mRNA in MEL cells
Description: 5×10^4 MEL cells carrying the dual fluorescence reporter were seeded on optical Packard 96-well view plates, treated with […] of the individual compound for 3 days, and primary screened for their DsRed intensity with use of the Wallac Victor3 1420 multilabel counter (Ex: 550/9; Em: 620). The secondary screenings were performed using a digital image detector, Cellomics Arrayscan 3.0 system, which doubly confirmed the intracellular DsRed fluorescence induced by the compound treatment. The endogenous globin gene expression patterns in the positive MEL cells from the primary and secondary screens as well as in compound-treated primary human erythroid cultures were subsequently identified by real time RT-PCR analysis.
as §2

[4] = test system: Bcl11a; assay: Real-time RT-PCR of Bcl11a expression in primary human erythroid cultures; conditions: different concentrations of STO-609, 3 days, FIG. 7C
Description: (§3) Primary human erythroid cultures were treated with 0.25 μM of compound A, and the relative expression levels of different transcription factors were then determined by real-time RT-PCR analysis. The white bars indicate the expression levels of mock control set as 1. The black bars are the relative expression levels in compound A-treated cells.
(§4) Mouse erythroleukemic (MEL) cells, an adult erythroid cell line (Friend, et al. (1971) Proc Natl Acad Sci USA 68:378-82), were maintained in DMEM medium (Gibco) supplemented with 10% FBS and 1% penicillin-streptomycin, in 37° C. chamber under a 5% CO2 humidified atmosphere. For establishing stable cell lines, transfection of the reporter pmLAR-Gp-DsRed-Bp-d2EGFP into MEL cells was carried out using the Neon™ transfection system (Invitrogen). 2×10^6 MEL cells were transfected with 5 μg of the plasmid. Following microporation, the MEL cells were seeded in 10 ml antibiotics-free DMEM for 24 hrs and selected with […] of neomycin for one month. […]
as §2

[5] = test system: NF-E4; assay: Real-time RT-PCR of NF-E4 expression in primary human erythroid cultures; conditions: different concentrations of STO-609, 3 days, FIG. 7B
Description: as §3, §4, §2

[6] = test system: β globin mRNA; assay: Real time RT-PCR of β globin mRNA in primary human erythroid cultures; set-up: dose or concentration left out as unconfirmed; conditions: STO-609, 3 days, FIG. 7A
Description: as §1, with “The cells were treated with chemical compound at day 7 post-differentiation and then harvested for further analysis after 3 days of compound treatment.” left out
as §2

[7] = test system: c-Myb; assay: Real-time RT-PCR of c-Myb expression in primary human erythroid cultures; conditions: different concentrations of STO-609, 3 days, FIG. 7D
Description: Dosage effects of STO-609 on the proliferation and γ/β globin gene expression of differentiated human erythroid progenitor cells were analyzed as described for compounds A-F. The differentiated primary cultured erythroid cells were treated with different concentrations of STO-609 for 3 days. (A) Relative induction of β (white bars) and γ globin mRNAs (black bars) was determined by real time RT-PCR analysis. The proliferation curve of the cells is shown with the mock control being 100%. (B) Relative expression levels of NF-E4 were determined by real time RT-PCR analysis and shown by the grey bars. (C) Relative expression levels of Bcl11a in response to treatments with different concentrations of STO-609 are shown (white bars). (D) Relative expression levels of c-Myb in cells treated with different concentrations of STO-609 are shown (black bars). The mock control is set as 1. […]
as §2

[8] = differentiated human primary erythroid cells, 3 days
[9] = different concentrations of compound A, 3 days, FIG. 3A

For `NC(=O)NO` [hydroxyurea], the IC50 [1, 8] was 146 µM.

With `CCCC(=O)[O-].[Na+]` [sodium butyrate] the IC50 ([1]; Homo sapiens) was 222 µM.

Work on `O=C(O)c1ccc2c(=O)n3c4ccccc4nc3c3ccc(C(=O)O)c1c23` [compound F, 7-Oxo-7H-benzo[de]benzo[4,5]imidazo[2,1-a]isoquinoline-3,4-dicarboxylic acid] yielded an IC50 [1, 8] of 103 µM.

For `O=C(O)c1ccc(C(=O)O)c2c(-c3ccc4c(=O)n5c6ccccc6nc5c5ccc(C(=O)O)c3c45)ccc(C(=O)O)c12` [compound A, 8-(3-Carboxy-7-oxo-7H-benzo[de]benzo[4,5]imidazo[2,1-a]isoquinolin-4-yl)-naphthalene-1,4,5-tricarboxylic acid], the “γ-globin induction fold compared to TSA, hydroxyurea and sodium butyrate” value ([2]; compound A […] vs TSA 0.33 μM, HU 100 μM, NaB 0.5 mM, 3 days, FIG. 3B) was “highest γ-globin induction fold”, the “relative expression level of the γ globin gene as a function of concentration” value [2, 9] was “significantly increased” and the IC50 [1, 8] was 0.2 µM. For the same compound, the “proliferation rates of the cells” value [1, 9] was “in reverse relationship with the concentration of compound A” and the “induction of endogenous mouse embryonic εy globin mRNA expression level” value [3] was “more than 10 fold”.

Work on `O=c1c2cccc3cccc(c32)c2nc3ccccc3n12` [compound B, Benzo[de]benzo[4,5]imidazo[2,1-a]isoquinolin-7-one] yielded an IC50 [1, 8] of 21.8 µM.

`O=c1c2cccc3c(Cl)ccc(c32)c2nc3ccccc3n12` [compound C, 3-Chloro-benzo[de]benzo[4,5]imidazo[2,1-a]isoquinolin-7-one] showed an IC50 [1, 8] of 75.2 µM.

In the case of `CC(=O)O.O=C(O)c1ccc2c3c1cccc3c(=O)n1c3ccccc3nc21` [STO-609, 7-oxo-7H-benzimidazo[2,1-a]benz[de]isoquinoline-3-carboxylic acid acetate], the “expression level of the γ globin gene repressor Bcl11a” value [4] is reported as “down-regulated”, the concentration at which the fetal γ globin gene expression was elevated ([2]; STO-609, 3 days, FIG. 7A) is reported as no less than 50 µM and the “expression level of the fetal γ globin gene” value ([2]; STO-609, 3 days, FIG. 7A) is reported as “elevated”. For the same compound, the “ability to induce fetal γ globin expression” value ([2]; survey of compounds with the benzo[de]benzo[4,5]imidazo[2,1-a]isoquinolin-7-one core) was “displays the fetal γ globin-inducting capability”, the “transcription of the γ globin gene activator NF-E4” value [5] was “up-regulation” and the “expression level of the adult β globin gene (elevated?)” value [6] was “but not the adult β globin”. For the same compound, the “transcript of c-Myb” value [7] was “significantly reduced”.

From patent US8822491B2, “Methods and compositions for treating β-thalassemia and sickle cell disease” (Academia Sinica, priority 2011, dated 2014)
